Common to all, as to type: biochemical
For one assay, the target named is T1, FGFR1 (Homo sapiens, UniProt P11362, C488A/C584S).
T1 construct: P1351.pET N6 BI-PTP FGFR A458-E765-X C488A, C584S; made in house; host or cells: E. coli (PTP1B co-expressed)
Put plainly: AlphaScreen kinase assay, FGFR1. Conditions: read-out: IC50, activity toward kinase FGFR. (In general: In Alpha technology, singlet oxygen from a donor bead excites a nearby acceptor bead.)

In the next assay the target is T2, Kdr (Homo sapiens, UniProt P35968).
T2 construct: purchased Invitrogen (assay run by Invitrogen)
T2 sequence (P35968 20-1356): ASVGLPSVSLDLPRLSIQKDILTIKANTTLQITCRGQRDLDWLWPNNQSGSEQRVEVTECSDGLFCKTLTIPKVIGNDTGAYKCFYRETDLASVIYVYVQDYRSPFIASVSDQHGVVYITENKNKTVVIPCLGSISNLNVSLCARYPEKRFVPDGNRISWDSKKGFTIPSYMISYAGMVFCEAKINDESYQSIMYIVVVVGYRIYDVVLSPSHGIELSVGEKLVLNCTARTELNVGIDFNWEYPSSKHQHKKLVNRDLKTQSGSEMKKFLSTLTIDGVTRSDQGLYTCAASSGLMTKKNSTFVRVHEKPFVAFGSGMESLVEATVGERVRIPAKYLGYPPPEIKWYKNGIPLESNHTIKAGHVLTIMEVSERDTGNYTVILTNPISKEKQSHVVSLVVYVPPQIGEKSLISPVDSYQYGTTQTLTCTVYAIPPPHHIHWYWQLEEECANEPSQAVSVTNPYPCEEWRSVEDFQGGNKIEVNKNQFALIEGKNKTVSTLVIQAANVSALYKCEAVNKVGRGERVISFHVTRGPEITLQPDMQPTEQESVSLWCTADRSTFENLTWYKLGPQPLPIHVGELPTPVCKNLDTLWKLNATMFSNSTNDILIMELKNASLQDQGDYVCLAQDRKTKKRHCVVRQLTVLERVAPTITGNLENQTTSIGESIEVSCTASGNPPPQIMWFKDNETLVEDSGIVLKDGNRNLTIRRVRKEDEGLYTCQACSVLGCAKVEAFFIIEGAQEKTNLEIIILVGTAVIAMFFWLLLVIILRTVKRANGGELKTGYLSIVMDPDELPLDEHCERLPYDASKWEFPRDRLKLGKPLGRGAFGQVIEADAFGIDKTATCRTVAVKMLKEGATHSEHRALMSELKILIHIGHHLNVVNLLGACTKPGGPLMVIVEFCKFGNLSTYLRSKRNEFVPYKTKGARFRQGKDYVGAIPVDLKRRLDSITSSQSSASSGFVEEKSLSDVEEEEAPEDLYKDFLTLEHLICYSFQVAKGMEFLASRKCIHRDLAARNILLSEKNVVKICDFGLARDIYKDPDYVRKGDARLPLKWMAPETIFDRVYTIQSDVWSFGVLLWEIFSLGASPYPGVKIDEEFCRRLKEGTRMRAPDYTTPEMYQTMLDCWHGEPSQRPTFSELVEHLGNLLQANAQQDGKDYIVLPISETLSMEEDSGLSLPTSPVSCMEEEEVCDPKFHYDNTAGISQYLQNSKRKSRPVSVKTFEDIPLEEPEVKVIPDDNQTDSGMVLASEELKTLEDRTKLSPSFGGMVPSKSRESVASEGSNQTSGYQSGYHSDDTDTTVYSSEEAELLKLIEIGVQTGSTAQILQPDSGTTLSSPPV
Briefly: Z'-Lyte FRET kinase assay (Invitrogen), Kdr. The conditions noted are these: read-out: IC50, activity toward kinase Kdr.

The next assay has as its target T3, Stk6 (Homo sapiens, UniProt O14965).
T3 construct: purchased Invitrogen (Carlsbad, Calif.), screening service
T3 sequence (O14965 1-403): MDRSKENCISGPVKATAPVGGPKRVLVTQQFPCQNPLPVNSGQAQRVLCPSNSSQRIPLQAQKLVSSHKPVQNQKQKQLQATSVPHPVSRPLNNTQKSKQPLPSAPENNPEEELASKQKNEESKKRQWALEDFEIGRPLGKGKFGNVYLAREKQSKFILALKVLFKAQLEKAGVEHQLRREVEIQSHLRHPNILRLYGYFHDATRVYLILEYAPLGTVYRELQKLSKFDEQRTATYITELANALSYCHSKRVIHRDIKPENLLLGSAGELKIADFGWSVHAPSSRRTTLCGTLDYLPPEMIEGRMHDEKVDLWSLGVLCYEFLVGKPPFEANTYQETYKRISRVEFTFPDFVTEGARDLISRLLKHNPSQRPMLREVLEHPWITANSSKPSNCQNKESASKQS
Put plainly: Z'-Lyte FRET kinase assay (Invitrogen), Stk6. The conditions noted are these: read-out: IC50, activity toward kinase Stk6.

The next assay has as its target T4, Fms (Homo sapiens, UniProt P07333).
T4 construct: purchased Upstate Biotechnology
Briefly: AlphaScreen kinase assay, Fms. Conditions: read-out: IC50, activity toward kinase Fms.

In the next assay the target is T5, Jnk3 (Homo sapiens, UniProt P53779).
T5 construct: purchased Upstate Biotechnology
T5 sequence (P53779 whole entry): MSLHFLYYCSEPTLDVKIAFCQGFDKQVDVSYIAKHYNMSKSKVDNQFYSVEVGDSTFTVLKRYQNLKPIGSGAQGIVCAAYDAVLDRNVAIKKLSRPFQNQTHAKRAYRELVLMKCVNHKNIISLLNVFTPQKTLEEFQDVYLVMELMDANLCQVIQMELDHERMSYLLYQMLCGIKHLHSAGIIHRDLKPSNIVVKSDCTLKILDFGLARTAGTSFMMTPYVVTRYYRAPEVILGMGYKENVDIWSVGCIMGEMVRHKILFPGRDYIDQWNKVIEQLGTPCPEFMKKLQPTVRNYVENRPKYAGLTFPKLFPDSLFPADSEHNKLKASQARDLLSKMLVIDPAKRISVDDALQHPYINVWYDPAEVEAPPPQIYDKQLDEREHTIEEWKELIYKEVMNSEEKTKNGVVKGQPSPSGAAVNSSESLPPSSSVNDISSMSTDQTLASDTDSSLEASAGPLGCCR
Put plainly: AlphaScreen kinase assay, Jnk3. Conditions: read-out: IC50, activity toward kinase Jnk3.

In another assay the target is T6, Kit (Homo sapiens, UniProt P10721).
T6 construct: P1332.N6 BI PTP KIT M552-K948-X COD; His6 (N); made in house; host or cells: E. coli (PTP1B co-expressed)
T6 sequence (P10721 with tags, fused parts or gaps): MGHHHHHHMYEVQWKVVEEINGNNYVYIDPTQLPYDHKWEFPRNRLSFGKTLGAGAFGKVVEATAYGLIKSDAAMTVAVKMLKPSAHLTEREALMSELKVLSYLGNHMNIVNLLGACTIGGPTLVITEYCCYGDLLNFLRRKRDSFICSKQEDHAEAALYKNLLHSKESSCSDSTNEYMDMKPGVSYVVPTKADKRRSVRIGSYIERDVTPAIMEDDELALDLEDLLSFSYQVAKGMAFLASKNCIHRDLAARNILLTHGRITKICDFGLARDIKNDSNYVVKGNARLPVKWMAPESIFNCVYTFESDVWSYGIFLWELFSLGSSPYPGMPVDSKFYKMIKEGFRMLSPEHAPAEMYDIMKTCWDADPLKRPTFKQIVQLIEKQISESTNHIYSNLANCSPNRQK
Briefly: AlphaScreen kinase assay, Kit. The conditions noted are these: read-out: IC50, activity toward kinase Kit.

The target of the next assay is T7, Fak (Homo sapiens, UniProt Q05397).
T7 construct: P1358.pFastBacHtb FAK S411-Q686-X; His6 with pFastBacHTb leader (TEV site) (N); made in house; host or cells: Sf9 (baculovirus)
T7 sequence (Q05397 411-686): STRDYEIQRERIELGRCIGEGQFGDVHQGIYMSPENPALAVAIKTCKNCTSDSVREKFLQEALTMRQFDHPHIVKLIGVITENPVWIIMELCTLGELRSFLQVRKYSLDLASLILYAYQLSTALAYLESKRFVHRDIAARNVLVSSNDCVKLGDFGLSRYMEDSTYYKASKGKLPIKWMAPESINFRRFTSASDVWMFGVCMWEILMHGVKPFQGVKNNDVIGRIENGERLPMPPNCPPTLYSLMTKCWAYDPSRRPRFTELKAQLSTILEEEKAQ
Briefly: AlphaScreen kinase assay, Fak. Conditions: read-out: IC50, activity toward kinase Fak.

Another assay has as its target T8, B-Raf V600E (Homo sapiens, UniProt P15056, V600E).
T8 construct: P4254. pFastBacBD-CDC37 BRAF D437-K722-X, V600E; His6 with pFastBac HT leader (TEV site) (N); made in house; host or cells: Sf9 (baculovirus; chaperone CDC37 co-expressed)
Put plainly: AlphaScreen kinase assay, B-Raf V600E. Conditions: read-out: IC50, activity toward kinase B-Raf V600E.

The record followed here is patent US8415469B2, “Compounds and methods for kinase modulation, and indications therefor” (Plexxikon Inc., priority 2005, dated 2013).

In general, IC50 refers to the concentration needed to halve the response being measured.

T1 sequence (P11362 458-765 C488A/C584S): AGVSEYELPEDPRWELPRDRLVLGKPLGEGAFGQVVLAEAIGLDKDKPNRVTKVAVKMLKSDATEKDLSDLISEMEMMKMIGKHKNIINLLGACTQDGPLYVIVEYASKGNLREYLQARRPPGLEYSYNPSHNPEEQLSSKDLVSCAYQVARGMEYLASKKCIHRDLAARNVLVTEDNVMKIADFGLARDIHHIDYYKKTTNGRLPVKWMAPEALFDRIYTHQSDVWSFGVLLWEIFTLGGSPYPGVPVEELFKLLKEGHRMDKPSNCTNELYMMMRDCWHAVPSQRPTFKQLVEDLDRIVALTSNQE
T8 sequence (P15056 with tags, fused parts or gaps V600E): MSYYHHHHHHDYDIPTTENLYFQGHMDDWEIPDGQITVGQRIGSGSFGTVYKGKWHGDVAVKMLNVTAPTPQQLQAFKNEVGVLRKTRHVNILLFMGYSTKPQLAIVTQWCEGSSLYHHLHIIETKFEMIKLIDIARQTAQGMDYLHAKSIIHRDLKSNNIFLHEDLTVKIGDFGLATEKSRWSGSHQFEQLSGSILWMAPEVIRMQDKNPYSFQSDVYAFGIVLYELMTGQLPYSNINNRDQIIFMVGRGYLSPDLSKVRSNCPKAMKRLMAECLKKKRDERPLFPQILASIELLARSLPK
T4 sequence (P07333 20-972): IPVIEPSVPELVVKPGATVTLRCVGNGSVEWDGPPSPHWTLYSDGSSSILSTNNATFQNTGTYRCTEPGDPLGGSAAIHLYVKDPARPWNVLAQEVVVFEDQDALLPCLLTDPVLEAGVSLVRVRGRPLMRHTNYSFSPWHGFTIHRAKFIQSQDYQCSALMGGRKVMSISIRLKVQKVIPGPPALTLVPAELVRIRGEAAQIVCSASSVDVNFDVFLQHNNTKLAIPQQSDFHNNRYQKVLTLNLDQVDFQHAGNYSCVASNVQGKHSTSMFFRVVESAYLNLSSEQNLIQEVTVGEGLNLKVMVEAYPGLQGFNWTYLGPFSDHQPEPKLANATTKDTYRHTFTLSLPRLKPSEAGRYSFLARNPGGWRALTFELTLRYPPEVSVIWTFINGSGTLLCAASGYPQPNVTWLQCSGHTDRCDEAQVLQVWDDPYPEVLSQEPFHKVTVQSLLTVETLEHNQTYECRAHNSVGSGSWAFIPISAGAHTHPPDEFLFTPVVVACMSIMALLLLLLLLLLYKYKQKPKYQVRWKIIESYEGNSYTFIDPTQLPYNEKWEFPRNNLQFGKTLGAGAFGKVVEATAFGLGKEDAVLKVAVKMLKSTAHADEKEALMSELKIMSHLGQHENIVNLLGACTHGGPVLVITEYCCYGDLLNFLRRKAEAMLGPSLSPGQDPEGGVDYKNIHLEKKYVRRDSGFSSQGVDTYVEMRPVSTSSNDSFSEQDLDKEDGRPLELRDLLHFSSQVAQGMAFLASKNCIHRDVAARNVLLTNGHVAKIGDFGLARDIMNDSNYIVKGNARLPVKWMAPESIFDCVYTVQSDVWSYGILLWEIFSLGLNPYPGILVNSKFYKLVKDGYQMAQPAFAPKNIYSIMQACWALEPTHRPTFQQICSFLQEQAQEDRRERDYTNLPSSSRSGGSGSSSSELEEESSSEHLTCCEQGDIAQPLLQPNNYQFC

`O=C(c1ccc(Nc2cccc(O)c2)nc1)c1c[nH]c2ncccc12` [Compound P-0189]: the IC50 at FGFR1, at Kdr, at Stk6, at Fms and at Jnk3 was at most 10 µM in each case.

For `c1ccc(-c2cnc3[nH]ccc3c2)cc1` [Compound P-0279], the IC50 at Kdr, at Stk6, at Jnk3 and at Kit was at most 10 µM throughout.

For `Cc1cccc(C)c1Cc1c[nH]c2ncccc12` [Compound P-0333, 3-(2,6-Dimethyl-benzyl)-1H-pyrrolo[2,3-b]pyridine], the IC50 at Fms, at Fak, at B-Raf V600E and at Kit was at most 10 µM in each case.

Regarding `COc1ccc(CCCc2c[nH]c3ncccc23)cc1` [Compound P-0437], the IC50 at Fak is at most 10 µM.

Consider `COc1cccc(C(=O)c2ccc(-c3cnc4[nH]ccc4c3)s2)c1` [Compound P-0494], for which, on Fak, the IC50 is at most 10 µM.

For the compound `CC(C)CCc1c[nH]c2ncccc12` [Compound P-0797], on Fak, the IC50 was at most 10 µM.

On to `Cc1cc(C)cc(-c2c(C)[nH]c3ncccc23)c1` [Compound P-1054], for which, at Fak, the IC50 was at most 10 µM.

As to `Cc1[nH]c2ncccc2c1-c1ccc(C(C)C)cc1` [Compound P-1083], at Fak, the IC50 is at most 10 µM.

As to `Cc1[nH]c2ncccc2c1-c1ccc(F)c(Cl)c1` [Compound P-1146], the IC50 on Fak is at most 10 µM.

For `Cc1[nH]c2ncccc2c1-c1ccco1` [Compound P-1190], on Fak, the IC50 was at most 10 µM.

Take `OC(c1ccccc1F)c1c[nH]c2ncc(Br)cc12` (centres unmarked) [Compound P-1321]: the IC50 at FGFR1, at Fms, on Fak and on Kit was at most 10 µM each time.

Take `COc1cccc(Cc2c[nH]c3ncc(-c4ccccc4)cc23)c1F` [Compound P-1323, 3-(2-Fluoro-3-methoxy-benzyl)-5-phenyl-1H-pyrrolo[2,3-b]pyridine]: the IC50 on FGFR1, at Fms, at Fak, on B-Raf V600E and on Kit was at most 10 µM in each case.

For `COc1cccc(Cc2c[nH]c3ncc(-c4cccc(NS(C)(=O)=O)c4)cc23)c1F` [Compound P-1329, N-{3-[3-(2-Fluoro-3-methoxy-benzyl)-1H-pyrrolo[2,3-b]pyridin-5-yl]-phenyl}-methanesulfonamide], the IC50 at FGFR1, at Fms, on Fak, at B-Raf V600E and on Kit was at most 10 µM each time.

As for `OCCOc1ccc(F)c(Cc2c[nH]c3ncc(Br)cc23)c1F` [Compound P-1392, 2-[3-(5-Bromo-1H-pyrrolo[2,3-b]pyridin-3-ylmethyl)-2,4-difluoro-phenoxy]-ethanol], the IC50 on FGFR1, at Fms, at Fak, on B-Raf V600E and on Kit was at most 10 µM in each case.

As for `CCCCN(c1ccc(F)c(Cc2c[nH]c3ncc(-c4cccnc4)cc23)c1F)S(=O)(=O)c1ccc(C(F)(F)F)cc1` [Compound P-1401], on Fak, the IC50 was at most 10 µM.

Take `Fc1cccc(F)c1Cc1c[nH]c2ncccc12` [Compound P-1482, 3-(2,6-Difluoro-benzyl)-1H-pyrrolo[2,3-b]pyridine]: the IC50 at FGFR1, on Fms, on Fak and at Kit was at most 10 µM in each case.

With `NS(=O)(=O)c1cccc(Nc2c[nH]c3ncccc23)c1` [Compound P-1500, 3-(1H-Pyrrolo[2,3-b]pyridin-3-ylamino)-benzenesulfonamide], the IC50 on Fms, on Fak and on Kit was at most 10 µM in each case.
